The record followed here is patent US4018801A, “Substituted oxirane compounds” (The Dow Chemical Company, priority 1975, dated 1977).

What all share (type): in vivo
One assay relates to Barnyard Grass. Nature of the assay: Pre-emergent control of seed germination, soil drench. As to conditions: barnyard grass. From the text: (§1) Four parts by weight of the compound, 0.08 part of sorbitan trioleate (Span 85), and 0.02 part of a sorbitan monooleate polyoxyethylene derivative (Tween 80) are dipersed in 40 milliliters of acetone to produce a concentrate composition in the form of a water-dispersible liquid containing the predetermined oxirane compound as the sole active agent.
(§2) A portion of each of these concentrate compositions were separately dispersed in portions of water to provide aqueous compositions, containing 0.44 pound of the oxirane compound per 100 gallons of ultimate aqueous mixture.
(§3) The aqueous compositions were then employed for the treatment of seed beds of good agricultural soil which had been prepared and seeded with the seeds of various grass species and broadleaf plants. The grass species included white winter wheat, cultured rice, pigweeds, crabgrass, cheat grass, wild oats, Johnson grass, barnyard grass and yellow foxtail; and the broadleaf plants included corn. In the treating operations, a predetermined quantity of each of the compositions was applied to separate seedbeds as a soil drench at a rate of about 0.43 acre inch of aqueous composition per acre. The quantities were controlled to supply a substantial uniform dosage in a seedbed equivalent to 1.0, 2.0 and 5.0 pounds of the oxirane compound per acre. These dosages correspond, respectively, to a concentration, within the soil depth penetrated of about 1.6, 3.2 and 8.0 parts by weight of the oxirane compound per million parts by weight of soil. Other seedbeds were similarly seeded with the named plant species but were left untreated to serve as checks.
(§4) After about 2 weeks the seedbeds were examined to ascertain what control of the growth of seeds had been obtained.
(§5) were prepared as in Example 32 and similarly employed for the pre-emergencetreatment of various plant species.
(§6) An aqueous composition containing 2-(α,α,α -trifluoro-m-tolyl)-2-(2,2,2-trichloroethyl)oxirane was prepared as described in Example 32. The composition was then employed according to the procedures of Example 32 except that lower concentrations of the oxirane compound were employed in the composition.
(§7) The percent control of the various plant species at the employed dosage rate of the 2-(α,α,α-trifluoro-m-tolyl)- 2-(2,2,2-trichloroethyl) supplied by the composition is set forth in the following Table IV.

Another assay deals with Pigweeds. The assay is described as above. The note with it: pigweeds, 2.0 pounds per acre.
Description: as §1, §2, §3, §4, §5, §6, §7

The test system of another assay is Johnson Grass. Described as above. The note with it: for pre-emergence control: Johnson grass; for % Control: pre-emergence, Johnson Grass.
Description: as §1, §2, §3, §4, §5
(§8) Separate aqueous compositions containing the 2-(m-chlorophenyl)-2-(2,2,2-trichloroethyl)oxirane (Cmpd. A) and 2-(m-bromophenyl)-2-(2,2,2-trichloroethyl)oxirane (Cmpd. C) compounds of the present invention were prepared as in Example 32 for comparative per-emergence herbicide tests against noxious grass species with the known 2 -(p-chlorophenyl)-2-(2,2,2-trichloroethyl)oxirane (Cmpd. B) compound and 2-(p-bromophenyl)-2-(2,2,2-trichloroethyl)oxirane (Cmpd. D). The pre-emergence tests were conducted in Example 32 and the results of such tests are set forth below in Table III.
as §6, §7

Another assay relates to Crabgrass. Described as above. As to conditions: for pre-emergence control: crabgrass; for % Control: pre-emergence, Crab Grass.
Description: as §1, §2, §3, §4, §5, §8, §6, §7

A further assay deals with Wild Oats. The description is as above. As to conditions: wild oats.
Description: as §1, §2, §3, §4, §5, §6, §7

The next assay has as its system Water-Grass. Nature of the assay: Comparative pre-emergence herbicide test.
Description: as §1, §2, §3, §4, §8

In the next assay the test system is Yellow Foxtail. Nature of the assay: Pre-emergent control of seed germination, soil drench. As to conditions: yellow foxtail.
Description: as §1, §2, §3, §4, §5, §6, §7

Setting [1] is: 0.25 to 0.5 pounds per acre, respectively.

Structures are written as SMILES.

As for `COc1cccc(C2(CC(Cl)(Cl)Cl)CO2)c1` (stereo not shown) [Example 12, 2-(m-methoxyphenyl)-2-(2,2,2-trichloroethyl)oxirane], the pre-emergence control entry in the assay with Barnyard Grass (2.0 pounds per acre), with Pigweeds, with Johnson Grass (2.0 pounds per acre) and with Crabgrass (2.0 pounds per acre) was “substantially complete pre-emergence control” in each case.
`Clc1ccc(C2(CC(Cl)(Cl)Cl)CO2)cc1Cl` (stereo not shown) [Example 5, 2-(3,4-dichlorophenyl)-2-(2,2,2-trichloroethyl)oxirane]: the pre-emergence control entry with Pigweeds, in the assay with Wild Oats (2.0 pounds per acre), with Johnson Grass (2.0 pounds per acre) and in the assay with Crabgrass (2.0 pounds per acre) was “substantially complete control” in each case.
`Clc1ccc(C2(CC(Cl)(Cl)Cl)CO2)cc1` (stereo not shown) [Cmpd. B, 2-(p-chlorophenyl)-2-(2,2,2-trichloroethyl)oxirane, reference compound]: the “% Control” value in the assay on Water-Grass (1/8 Lb/Acre) is listed as 90%; in the assay on Water-Grass (1/16 Lb/Acre), 60%; with Johnson Grass (1/8 Lb/Acre) it was 30%; in the assay on Johnson Grass (1/16 Lb/Acre) it was 0%; with Crabgrass (1/8 Lb/Acre), 20%; with Crabgrass (1/16 Lb/Acre) it was 0%.
As for `Clc1cccc(C2(CC(Cl)(Cl)Cl)CO2)c1` (stereo not shown) [Example 7, 2-(m-chlorophenyl)-2-(2,2,2-trichloroethyl)oxirane], the “% Control” value in the assay on Water-Grass (1/8 Lb/Acre) was 90%; with Water-Grass (1/16 Lb/Acre), 85%; in the assay on Johnson Grass (1/8 Lb/Acre), 100%; with Johnson Grass (1/16 Lb/Acre) it was 100%; with Crabgrass (1/8 Lb/Acre) it was 100%; with Crabgrass (1/16 Lb/Acre), 100%. Besides, the pre-emergence control result in the assay with Yellow Foxtail (setting [1]), with Barnyard Grass (setting [1]), in the assay with Wild Oats (setting [1]), with Johnson Grass (setting [1]) and with Crabgrass (setting [1]) was “Substantially complete pre-emergence control” in each case.
Take `ClC(Cl)(Cl)CC1(c2ccc(Br)cc2)CO1` (stereo not shown) [Cmpd. D, 2-(p-bromophenyl)-2-(2,2,2-trichloroethyl)oxirane, reference compound]: the “% Control” value with Water-Grass (1/8 Lb/Acre) is 60%; with Water-Grass (1/16 Lb/Acre), 30%; in the assay on Johnson Grass (1/8 Lb/Acre) it was 25%; with Johnson Grass (1/16 Lb/Acre), 0%; in the assay on Crabgrass (1/8 Lb/Acre), 0%; with Crabgrass (1/16 Lb/Acre) it was 0%.
Regarding `CCOc1cccc(C2(CC(Cl)(Cl)Cl)CO2)c1` (stereo not shown) [Example 14, 2-(m-ethoxyphenyl)-2-(2,2,2-trichloroethyl)oxirane], the pre-emergence control entry in the assay on Barnyard Grass (2.0 pounds per acre), with Wild Oats (2.0 pounds per acre), in the assay with Johnson Grass (2.0 pounds per acre) and in the assay with Crabgrass (2.0 pounds per acre) was “substantially complete control” each time.
Take `Fc1cccc(C2(CC(Cl)(Cl)Cl)CO2)c1` (stereo not shown) [Example 19, 2-(m-fluorophenyl)-2-(2,2,2-trichloroethyl)oxirane]: the pre-emergence control entry with Yellow Foxtail (setting [1]), in the assay on Barnyard Grass (setting [1]), with Wild Oats (setting [1]), with Johnson Grass (setting [1]) and in the assay on Crabgrass (setting [1]) was “Substantially complete pre-emergence control” in each case.
As for `Cc1cccc(C2(CC(Cl)(Cl)Cl)CO2)c1` (stereo not shown) [Example 9, 2-(m-tolyl)-2-(2,2,2-trichloroethyl)oxirane], the pre-emergence control result in the assay on Yellow Foxtail (2.0 pounds per acre), in the assay with Barnyard Grass (2.0 pounds per acre), in the assay on Pigweeds, in the assay on Wild Oats (2.0 pounds per acre), with Johnson Grass (2.0 pounds per acre) and in the assay on Crabgrass (2.0 pounds per acre) was “substantially complete control” throughout.
